According to article PMC12518639, “Apomorphine is a novel necroptosis inhibitor targeting mixed lineage kinase domain-like protein oligomerization” (Cell Death Discovery, 2025):

Assays:
[1] = target: T1, Nt-hMLKL^R145A/R146A/F148A/M150A (Homo sapiens, UniProt Q8NB16, F148A/M150A/R145A/R146A); experiment: SPR binding to Nt-hMLKL quadruple mutant; details: CM5 chip
T1 construct: an N-terminal domain (Nt-hMLKL, amino acids 2–154, MW: 23 kDa) involved in oligomerization; His (N); made in house; host or cells: E. coli BL21
Source text: The hMLKL plasmid (RC213152, OriGene, Rockville, MD, USA), and recombinant Wt-hMLKL (ab241453, Abcam) and Wt-mMLKL (MBS1379843, MyBioSource, San Diego, CA, USA) proteins were purchased. Nt-hMLKL (2–154), Nt-mMLKL (1–180), and Ct-hMLKL (183–471) were generated using the pBT7-N-His vector. Nt-hMLKL^C86A, Nt-hMLKL^F148A, -hMLKL^C86A/L89A/D94A, and Nt-hMLKL^R145A/R146A/F148A/M150A were generated using the Site-directed Mutagenesis Kit (EZ004S, Enzynomics, S. Korea). These constructs were subcloned into pBT7-N-His and pET-15b plasmid vectors. E. coli BL21 cells transformed with the cloned expression vectors were cultured in LB medium and supplemented with 100 μg/mL ampicillin until an OD at 600 nm of 0.5–0.6 was reached. The cultures were induced by 1 mM IPTG (367-93-1, Sigma-Aldrich). The cells were lysed and centrifuged. The clear supernatants were subjected to Ni-NTA affinity chromatography (175018169, QIAGEN, Hilden, Germany). Plasmids encoding mMLKL (1–464)–gyrase fusion constructs were kindly provided by Prof. […]
The interactions of Wt-hMLKL, Wt-mMLKL, Nt-mMLKL, Nt, and Ct-hMLKL proteins with Re-APO or Ox-APO were detected through SPR analysis using Biacore™ T200 (Cytiva, Marlborough, MA, USA). […] Sensorgrams were recorded and analyzed in real-time using the control software in the BIAcore T200 system. All data were analyzed using the BIA evaluation software (Cytiva).

[2] = test system: APAP-induced liver injury in MLKL−/− C57BL/6 mice; experiment: APAP-induced liver injury in MLKL knockout mice; format: in vivo, mouse; details: 15 mg/kg, 400 mg/kg APAP, 24 h
Method: For APAP-induced liver injury, male BALB/c mice aged 6–8 weeks (Central Lab Animal Inc., S. Korea) and male MLKL^–/– C57BL/6 mice aged 6–8 weeks (Cyagen, Santa Clara, CA, USA) were administered acetaminophen (APAP; 400–500 mg/kg, 103-90-2, Sigma-Aldrich) by i.p. injection to induce liver injury in the presence or absence of APO after 12 h of fasting. After 24 h, the mice were sacrificed to obtain liver tissues for further analysis.
For liver tissue preparation, each liver was perfused with DPBS and then fixed in 4% paraformaldehyde (PFA; PC2031-050-00, Biosesang, S. Korea) before embedding in paraffin. Sections were stained with H&E, and necrotic areas were quantified using ImageJ by calculating the proportion of pale or unstained regions relative to the total tissue area. Mouse liver sections were subjected to IHC staining to assess distinct forms of cell death: an anti-p-MLKL antibody (MA5-32752, Thermo Fisher Scientific) to evaluate p-MLKL localization (necroptosis), a TUNEL assay kit (4810-30-K, R&D Systems) for apoptosis, and an anti-4-HNE antibody (GTX01087, GeneTex) for ferroptosis.
Fig. S6 APO reduces liver damage in MLKL^–/– mice. […] Necrotic areas were quantified as the proportion of unstained regions relative to the total tissue area. […] (D) Serum AST and ALT levels were evaluated to assess liver injury after APAP injection. […]

T1 sequence (Q8NB16 2-154 R145A/R146A/F148A/M150A): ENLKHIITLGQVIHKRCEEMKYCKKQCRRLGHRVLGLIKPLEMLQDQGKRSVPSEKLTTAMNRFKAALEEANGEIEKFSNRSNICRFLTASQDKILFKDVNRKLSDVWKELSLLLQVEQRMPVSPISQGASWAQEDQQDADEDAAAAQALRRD

CN1CCc2cccc3c4c(cc1c23)C=CC(=O)C4=O [Ox-APO]
binding in SPR [1]: retained binding | hepatic damage (H&E, ALT, AST, TUNEL, 4-HNE) [2]: significantly reduced
